Reference: patent US11098073B2, “Triphenylphosphonium-tethered tetracyclines for use in treating cancer” (Oxford University Innovation Limited, priority 2017, dated 2021)
Structures can show the parent of a compound that is named as a salt.

These compounds were tested on MDA-231 cancer cells (assay: Inhibition of proliferation assay: cell confluence (IncuCyte live cell imaging)). Conditions: compound tested at 10 μM, images every 3 h over 4-5 d, relative confluence normalised to time zero.
Assay type: cell-based
From the text: Inhibition of Proliferation Assay
The confluence value is a surrogate for cell proliferation and growth. The value is expressed as a percent confluence, which represents the fraction of culture dish-surface that is occupied by cells. As the number of cells in the dish increases over time due to proliferation, so will their coverage of that surface increase. Expansion of the cell population on the cell culture-dish surface and confluence have mostly a linear relationship until the cells on the plate surface begin to reach saturation or maximum density.
Confluence is determined based on image analysis. Image based software can identify objects in the image field base on changes to pixel density in a grey scale image. The software can then assign a mask to those pixels within the object. Objects can be ‘gated’ out based on size and shape. To determine cell confluence, images of cells are first masked as objects. The surface area of the image that is masked is measured and compared to the total surface area of the culture dish surface to obtain a percent confluence.
MDA-231 cancer cells were obtained from ATCC. Cells were cultured in Dulbecco's Modified Eagle Medium (DMEM) supplemented with 10% Fetal Bovine Serum (FBS), 2 mM Glutamax, 1 mM Non Essential Amino Acid (NEAA) solution and 1 mM sodium pyruvate. […] Final DMSO concentrations were […]. Images were acquired with an IncuCyte Live Cell Imaging microscopy (Essen Bioscience) at every 3 h under cell culture conditions with 10 OX objective over 4-5 d. Cell confluence was calculated from one field of view per well using the IncuCyte in-built algorithm. Relative confluence values were obtained by normalising each value to the time zero value in each sample.

Question: With C[C@H]1c2cccc(O)c2C(=O)C2=C(O)[C@]3(O)C(=O)C(C(N)=O)=C(O)[C@@H](N(C)C)[C@@H]3[C@@H](O)[C@@H]21 [Doxycycline, reference compound] as the compound, how does the “% Confluence” value read?
Answer: 98.7%

Question: With C[C@H]1c2ccc(NC(=O)CCCCCCCCCCC[P+](c3ccccc3)(c3ccccc3)c3ccccc3)c(O)c2C(=O)C2=C(O)[C@]3(O)C(=O)C(C(N)=O)=C(O)[C@@H](N(C)C)[C@@H]3[C@@H](O)[C@@H]21 [Example 1, (11-{[(5R,5aR,6S,6aR,7S,10aS)-9-carbamoyl-7-(dimethylamino)-1,6,8,10a,11-pentahydroxy-5-methyl-10,12-dioxo-5,5a,6,6a,7,10,10a,12-octahydrotetracen-2-yl]carbamoyl}undecyl)triphenylphosphonium formate] as the compound, how does the “% Confluence” value read?
Answer: 27.1%

Question: For C[C@H]1c2ccc(NC(=O)CCCCCCC[P+](c3ccccc3)(c3ccccc3)c3ccccc3)c(O)c2C(=O)C2=C(O)[C@]3(O)C(=O)C(C(N)=O)=C(O)[C@@H](N(C)C)[C@@H]3[C@@H](O)[C@@H]21 [Example 2, (7-{[(5R,5aR,6S,6aR,7S,10aS)-9-carbamoyl-7-(dimethylamino)-1,6,8,10a,11-pentahydroxy-5-methyl-10,12-dioxo-5,5a,6,6a,7,10,10a,12-octahydrotetracen-2-yl]carbamoyl}heptyl)triphenylphosphonium formate], which “% Confluence” value is on record?
Answer: 81.2%

Question: With C[C@H]1c2ccc(NC(=O)CNC(=O)CCCCCCC[PH](c3ccccc3)(c3ccccc3)c3ccccc3)c(O)c2C(=O)C2=C(O)[C@]3(O)C(=O)C(C(N)=O)=C(O)[C@@H](N(C)C)[C@@H]3[C@@H](O)[C@@H]21 [Example 3, {7-[({[(5R,5aR,6S,6aR,7S,10aS)-9-carbamoyl-7-(dimethylamino)-1,6,8,10a,11-pentahydroxy-5-methyl-10,12-dioxo-5,5a,6,6a,7,10,10a,12-octahydrotetracen-2-yl]carbamoyl}methyl)carbamoyl]heptyl}triphenylphosphonium trifluoroacetate] as the compound, how does the “% Confluence” value read?
Answer: 99.9%

Question: With C[C@H]1c2c(NC(=O)CCCCCCC[P+](c3ccccc3)(c3ccccc3)c3ccccc3)ccc(O)c2C(=O)C2=C(O)[C@]3(O)C(=O)C(C(N)=O)=C(O)[C@@H](N(C)C)[C@@H]3[C@@H](O)[C@@H]21 [Example 4, (7-{[(6aS,10S,10aR,11S,11aR,12R)-8-carbamoyl-10-(dimethylamino)-4,6,6a,9,11-pentahydroxy-12-methyl-5,7-dioxo-5,6a,7,10,10a,11,11a,12-octahydrotetracen-1-yl]carbamoyl}heptyl)triphenylphosphonium trifluoroacetate] as the compound, how does the “% Confluence” value read?
Answer: 124.3%

Question: For C[C@H]1c2ccc(CNC(=O)CCCCCCCCC[P+](c3ccccc3)(c3ccccc3)c3ccccc3)c(O)c2C(=O)C2=C(O)[C@]3(O)C(=O)C(C(N)=O)=C(O)[C@@H](N(C)C)[C@@H]3[C@@H](O)[C@@H]21 [Example 5, trifluoroacetate], which “% Confluence” value is on record?
Answer: 37%

Question: Which “% Confluence” value does the source give for C[C@H]1c2ccc(NC(=O)CCCCCCCCCC[P+](c3ccccc3)(c3ccccc3)c3ccccc3)c(O)c2C(=O)C2=C(O)[C@]3(O)C(=O)C(C(N)=O)=C(O)[C@@H](N(C)C)[C@@H]3[C@@H](O)[C@@H]21 [Example 6, (10-{[(5R,5aR,6S,6aR,7S,10aS)-9-carbamoyl-7-(dimethylamino)-1,6,8,10a,11-pentahydroxy-5-methyl-10,12-dioxo-5,5a,6,6a,7,10,10a,12-octahydrotetracen-2-yl]carbamoyl}decyl)triphenylphosphonium trifluoroacetate] here?
Answer: 36.8%

Question: With C[C@H]1c2ccc(NC(=O)CCCCCCCCC[P+](c3ccccc3)(c3ccccc3)c3ccccc3)c(O)c2C(=O)C2=C(O)[C@]3(O)C(=O)C(C(N)=O)=C(O)[C@@H](N(C)C)[C@@H]3[C@@H](O)[C@@H]21 [Example 7, (9-{[(5R,5aR,6S,6aR,7S,10aS)-9-carbamoyl-7-(dimethylamino)-1,6,8,10a,11-pentahydroxy-5-methyl-10,12-dioxo-5,5a,6,6a,7,10,10a,12-octahydrotetracen-2-yl]carbamoyl}nonyl)triphenylphosphonium trifluoroacetate] as the compound, how does the “% Confluence” value read?
Answer: 38.7%

Question: Which “% Confluence” value does the source give for C[C@H]1c2ccc(NC(=O)CNC(=O)CCCCC[P+](c3ccccc3)(c3ccccc3)c3ccccc3)c(O)c2C(=O)C2=C(O)[C@]3(O)C(=O)C(C(N)=O)=C(O)[C@@H](N(C)C)[C@@H]3[C@@H](O)[C@@H]21 [Example 8, {5-[({[(5R,5aR,6S,6aR,7S,10aS)-9-carbamoyl-7-(dimethylamino)-1,6,8,10a,11-pentahydroxy-5-methyl-10,12-dioxo-5,5a,6,6a,7,10,10a,12-octahydrotetracen-2-yl]carbamoyl}methyl)carbamoyl]pentyl}triphenylphosphonium trifluoroacetate] here?
Answer: 96.2%

Question: With C[C@H]1c2ccc(NC(=O)CNC(=O)CCC[P+](c3ccccc3)(c3ccccc3)c3ccccc3)c(O)c2C(=O)C2=C(O)[C@]3(O)C(=O)C(C(N)=O)=C(O)[C@@H](N(C)C)[C@@H]3[C@@H](O)[C@@H]21 [Example 9, {3-[({[(5R,5aR,6S,6aR,7S,10aS)-9-carbamoyl-7-(dimethylamino)-1,6,8,10a,11-pentahydroxy-5-methyl-10,12-dioxo-5,5a,6,6a,7,10,10a,12-octahydrotetracen-2-yl]carbamoyl}methyl)carbamoyl]propyl}triphenylphosphonium trifluoroacetate] as the compound, how does the “% Confluence” value read?
Answer: 83%

Question: Which “% Confluence” value does the source give for C[C@H]1c2ccc(NC(=O)CCNC(=O)CCCCCCC[P+](c3ccccc3)(c3ccccc3)c3ccccc3)c(O)c2C(=O)C2=C(O)[C@]3(O)C(=O)C(C(N)=O)=C(O)[C@@H](N(C)C)[C@@H]3[C@@H](O)[C@@H]21 [Example 10, {7-[(2-{[(5R,5aR,6S,6aR,7S,10aS)-9-carbamoyl-7-(dimethylamino)-1,6,8,10a,11-pentahydroxy-5-methyl-10,12-dioxo-5,5a,6,6a,7,10,10a,12-octahydrotetracen-2-yl]carbamoyl}ethyl)carbamoyl]heptyl}triphenylphosphonium trifluoroacetate] here?
Answer: 92.2%

Question: With C[C@H]1c2ccc(NC(=O)CCNC(=O)CCCCCCCCC[P+](c3ccccc3)(c3ccccc3)c3ccccc3)c(O)c2C(=O)C2=C(O)[C@]3(O)C(=O)C(C(N)=O)=C(O)[C@@H](N(C)C)[C@@H]3[C@@H](O)[C@@H]21 [Example 11, {9-[(2-{[(5R,5aR,6S,6aR,7S,10aS)-9-carbamoyl-7-(dimethylamino)-1,6,8,10a,11-pentahydroxy-5-methyl-10,12-dioxo-5,5a,6,6a,7,10,10a,12-octahydrotetracen-2-yl]carbamoyl}ethyl)carbamoyl]nonyl}triphenylphosphonium trifluoroacetate] as the compound, how does the “% Confluence” value read?
Answer: 45%

Question: C[C@H]1c2ccc(NC(=O)CCNC(=O)CCCC[P+](c3ccccc3)(c3ccccc3)c3ccccc3)c(O)c2C(=O)C2=C(O)[C@]3(O)C(=O)C(C(N)=O)=C(O)[C@@H](N(C)C)[C@@H]3[C@@H](O)[C@@H]21 [Example 12, {4-[(2-{[(5R,5aR,6S,6aR,7S,10aS)-9-carbamoyl-7-(dimethylamino)-1,6,8,10a,11-pentahydroxy-5-methyl-10,12-dioxo-5,5a,6,6a,7,10,10a,12-octahydrotetracen-2-yl]carbamoyl}ethyl)carbamoyl]butyl}triphenylphosphonium trifluoroacetate] was tested. Which “% Confluence” value did it give?
Answer: 91.9%

Question: Which “% Confluence” value does the source give for C[C@H]1c2c(NC(=O)CCCCCCCCCCC[P+](c3ccccc3)(c3ccccc3)c3ccccc3)ccc(O)c2C(=O)C2=C(O)[C@]3(O)C(=O)C(C(N)=O)=C(O)[C@@H](N(C)C)[C@@H]3[C@@H](O)[C@@H]21 [Example 13, (11-{[(6aS,10S,10aR,11 S,11 aR,12R)-8-carbamoyl-10-(dimethylamino)-4,6,6a,9,11-pentahydroxy-12-methyl-5,7-dioxo-5,6a,7,10,10a,11,11a,12-octahydrotetracen-1-yl]carbamoyl}undecyl)triphenylphosphonium trifluoroacetate] here?
Answer: 53.7%

Question: C[C@H]1c2c(NC(=O)CCCCCCCCC[P+](c3ccccc3)(c3ccccc3)c3ccccc3)ccc(O)c2C(=O)C2=C(O)[C@]3(O)C(=O)C(C(N)=O)=C(O)[C@@H](N(C)C)[C@@H]3[C@@H](O)[C@@H]21 [Example 14, (9-{[(6aS,10S,10aR,11 S,11 aR,12R)-8-carbamoyl-10-(dimethylamino)-4,6,6a,9,11-pentahydroxy-12-methyl-5,7-dioxo-5,6a,7,10,10a,11,11a,12-octahydrotetracen-1-yl]carbamoyl}nonyl)triphenylphosphonium trifluoroacetate] was tested. Which “% Confluence” value did it give?
Answer: 87.9%

Question: With C[C@H]1c2c(NC(=O)CCNC(=O)CCCCCCC[P+](c3ccccc3)(c3ccccc3)c3ccccc3)ccc(O)c2C(=O)C2=C(O)[C@]3(O)C(=O)C(C(N)=O)=C(O)[C@@H](N(C)C)[C@@H]3[C@@H](O)[C@@H]21 [Example 15, {7-[(2-{[(6aS,10S,10aR,11S,11aR,12R)-8-carbamoyl-10-(dimethylamino)-4,6,6a,9,11-pentahydroxy-12-methyl-5,7-dioxo-5,6a,7,10,10a,11,11a,12-octahydrotetracen-1-yl]carbamoyl}ethyl)carbamoyl}heptyl}triphenylphosphonium trifluoroacetate] as the compound, how does the “% Confluence” value read?
Answer: 112.8%

Same assay, conditions: compound tested at 50 μM, images every 3 h over 4-5 d, relative confluence normalised to time zero

Question: Which “% Confluence” value does the source give for C[C@H]1c2cccc(O)c2C(=O)C2=C(O)[C@]3(O)C(=O)C(C(N)=O)=C(O)[C@@H](N(C)C)[C@@H]3[C@@H](O)[C@@H]21 [Doxycycline, reference compound] here?
Answer: 91%
